Holding throughout (settings): stereoisomer not certain
Data set [1] can be described thus: HILIC, Waters Atlantis Premier BEH Z-HILIC, 100 × 2.1 mm, 1.7 µm, 40 °C, 0.15 mL/min, estimated dead time 1.5 min; A: water + 20 mM ammonium carbonate + 5 µM medronic acid; B: 10% water + 90% acetonitrile + 2 mM ammonium carbonate + 0.5 µM medronic acid; gradient (min/%B) 0/97 18/55 18.1/20 21.5/20 22/97 23.5/97 25.5/97.
Data set [2] is described as follows: HILIC, Waters Atlantis Premier BEH Z-HILIC, 100 × 2.1 mm, 1.7 µm, 40 °C, 0.15 mL/min, estimated dead time 1.5 min; A: water + 20 mM ammonium carbonate + 5 µM medronic acid; B: 10% water + 90% acetonitrile + 2 mM ammonium carbonate + 0.5 µM medronic acid; gradient (min/%B) 0/95 18/50 18.1/20 21.5/20 22/95 23.5/95 25.5/95.
Data set [3] can be described thus: RP, Waters ACQUITY UPLC HSS T3, 0.4 mL/min; A: water + 0.01% formic acid; B: 50% water + 50% acetonitrile + 0.01% formic acid; gradient (min/%B) 0/0 0.5/0 9/30 10/50 15/100 16/100 17/0 25/0.
The nature of data set [4]: RP, Waters ACQUITY UPLC BEH C18, 100 × 2.1 mm, 1.7 µm, 35 °C, 0.3 mL/min, estimated dead time 0.73 min; A: water + 0.1% formic acid, pH 3; B: methanol; gradient (min/%B) 0/0 1.6/0 2/20 6/70 7/70 14/90 17.5/90 18/95 21/95.
Data set [5] is described as follows: RP, Waters ACQUITY UPLC BEH C18, 100 × 2.1 mm, 1.7 µm, 35 °C, 0.25 mL/min, estimated dead time 0.88 min; A: water + 0.1% acetic acid, pH 3; B: acetonitrile; gradient (min/%B) 0/10 1/10 2.5/15 4/22 6/38 9/65 12/80 16/100 19/100.
Data set [6] is described as follows: RP, Waters ACQUITY UPLC BEH C18, 100 × 2.1 mm, 1.7 µm, 35 °C, 0.3 mL/min, estimated dead time 0.73 min; A: water + 0.1% formic acid, pH 3; B: methanol; gradient (min/%B) 0/10 1.6/10 2/20 6/70 7/70 14/90 17.5/90 18/95 21/95.

Consider 26 compounds from the RepoRT retention time repository.

Consider `CCC(=O)OC(CC(=O)[O-])C[N+](C)(C)C` (configuration not stated) [carnitine-C3], for which the LC retention time is 7.17 min in data set [1] and 6.36 min in data set [2].
For `O=C(O)CC(C(=O)O)C(O)C(=O)O` (configuration not stated) [Isocitric acid] the same measures were 13.9 min and 12.6 min.
As to `Nc1ccn(C2OC(CO)C(O)C2O)c(=O)n1` (configuration not stated) [cytidine], the LC retention time in data set [3] amounted to 0.92 min.
Regarding `COC1C(O)C(CO)OC1n1cnc2c(=O)[nH]c(N)nc21` (configuration not stated) [2'-O-methylguanosine], the LC retention time in data set [3] was 5.34 min.
As to `O=C(O)CCC(O)C(=O)O` (configuration not stated) [2-hydroxy glutaric acid], the LC retention time in data set [1] was 10 min; in data set [2], 8.97 min.
Take `O=C(CO)COP(=O)(O)O` [Triose phosphate]: the LC retention time is 10.7 min in data set [1] and 9.62 min in data set [2].
Regarding `NC(CCC(=O)NC(CSCO)C(=O)NCC(=O)O)C(=O)O` (stereo not drawn) [S-(Hydroxymethyl)glutathione], the LC retention time in data set [4] is 1.7 min.
For the compound `O=C(O)C(CO)OP(=O)(O)O` (configuration not stated) [Phosphoglyceric acid A], the figures for the LC retention time in data set [1] and in data set [2] were 12.9 min and 11.6 min, respectively.
For the compound `COC1C(O)C(CO)OC1n1cnc2c(N)ncnc21` (configuration not stated) [2'-O-methyladenosine], the LC retention time in data set [3] stood at 5.78 min.
As to `NC(Cc1ccccc1)C(=O)O` (configuration not stated) [Phenylalanine], the LC retention time in data set [5] is 2 min.
Take `Nc1nc2c(ncn2C2OC(CO)C(O)C2O)c(=O)[nH]1` (configuration not stated) [guanosine]: the LC retention time in data set [3] amounted to 4.08 min.
As for `Nc1ncnc2c1ncn2C1OC(CO)C(O)C1O` (configuration not stated) [adenosine], the LC retention time in data set [3] stood at 4.57 min.
As for `CCCC(=O)OC(CC(=O)[O-])C[N+](C)(C)C` (configuration not stated) [Butyrylcarnitine], the LC retention time in data set [6] is 2.75 min.
Same read-out and setting: with `CC(C)CC(N)C(=O)O` (configuration not stated) [Leucine] the figure was 1.62 min.
Regarding `COC1C(O)C(CO)OC1n1ccc(=O)[nH]c1=O` (configuration not stated) [2'-O-methyluridine], the LC retention time in data set [3] came out at 4.79 min.
Consider `NC(CCC(=O)NC(CS)C(=O)NCC(=O)O)C(=O)O` (configuration not stated) [Glutathione], for which the figures for the LC retention time in data set [6] and in data set [4] were 1 min and 2 min, respectively.
For `O=C(O)CC(O)(CC(=O)O)C(=O)O` [Citric acid], the LC retention time is 14.1 min in data set [1] and 12.9 min in data set [2].
The like results for `O=C(O)CCC(=O)C(=O)O` [2-Oxoglutaric acid] were, in that order, 9.47 min and 8.54 min.
Regarding `C=C(OP(=O)(O)O)C(=O)O` [PEP], the LC retention time was 13.8 min in data set [1] and 12.5 min in data set [2].
In the case of `CC(C)CC(NC(=O)C(C)O)C(=O)O` (configuration not stated) [N-lactoyl-leucine], the LC retention time in data set [5] is 5 min.
On to `CC(O)C(=O)O` (configuration not stated) [Lactic acid], for which the LC retention time in data set [6] was 1.11 min.
In the case of `CC(=O)NC(Cc1ccccc1)C(=O)O` (configuration not stated) [N-acetylphenylalanine], in data set [5], the LC retention time is 5 min.
With `NC(CCC(=O)NC(CSSCC(NC(=O)CCC(N)C(=O)O)C(=O)NCC(=O)O)C(=O)NCC(=O)O)C(=O)O` (configuration not stated) [Oxidized glutathione], the LC retention time in data set [6] was 1.04 min; in data set [4], 3 min.
`O=c1ccn(C2OC(CO)C(O)C2O)c(=O)[nH]1` (configuration not stated) [uridine]: the LC retention time in data set [3] came to 2.04 min.
For the compound `COC1C(c2c[nH]c(=O)[nH]c2=O)OC(CO)C1O` (configuration not stated) [2'-O-methylpseudouridine], the LC retention time in data set [3] was found to be 4.95 min.
For `O=C(O)CCC(=O)O` [Succinic Acid], the values for the LC retention time in data set [1] and in data set [2] were 10 min and 9.06 min, respectively.
